Read-outs that look alike come from different tables or passages of the source.
Key:
A(H1N1)pdm09 virus = tested on: A(H1N1)pdm09 virus; design: method as in PMID 31837268; details: nude mice, BXM 10 mg/kg once daily for 28 days; untreated controls 5 days; cited from earlier work
[1] = tested on: splenic T, B and NK cells; details: for frequency of proliferating B cells: day 4 post infection; for frequency of proliferating B cells / percentage of proliferating T cells: CP 100 mg/kg i.p.
[2] = BXA in humans; mimicked by 15 mg/kg BXM BID for 5 days orally in immunocompetent mice; cited from earlier work

For `COC(=O)OCOc1c2n(ccc1=O)N([C@@H]1c3ccccc3SCc3c1ccc(F)c3F)[C@@H]1COCCN1C2=O` [BXM, baloxavir marboxil], the median survival time (A(H1N1)pdm09 virus) is listed as 49 days.
For `O=P1(N(CCCl)CCCl)NCCCO1` (stereo not shown) [CP, cyclophosphamide], the NK proliferative capacity ([1]; following CP administration, day 4 p.i.) was “no significant decline”, the “frequency of proliferating B cells” value ([1]; infected animals, without CP 94.7%) was 40.7% and the “percentage of proliferating T cells” value ([1]; infected mice, day 4 p.i., without CP […]) was 72.6%. The “percentage of proliferating T cells” value ([1]; uninfected mice, day 4 p.i., without CP 92.2%) was 63.1% and the “frequency of proliferating B cells” value ([1]; uninfected mice, without CP 82.5%) was 36.2%.
In the case of `O=C1c2c(O)c(=O)ccn2N([C@@H]2c3ccccc3SCc3c2ccc(F)c3F)[C@@H]2COCCN12` [BXA, baloxavir acid], the target plasma concentration [2] is given as 6.85 ng/mL.

— paper PMC7764069 (Microorganisms, 2020)
